Holding throughout (assay type): functional
The subject of assay [1] is P388. As to the kind of experiment: Inhibitory activity against growth of P388 leukemia cells was determined. To be noted: Mus musculus.
The subject of assay [2] is U-251. As to the kind of experiment: Inhibitory activity against growth of human CNS cancer cell line U251 was determined.
Assay [3] has as its system FaDu. As to the kind of experiment: Inhibitory activity against growth of human pharynx cancer cell line FADU was determined.
Assay [4] concerns P388. As to the kind of experiment: Effective dose that causes inhibition of growth of P388 leukemia cells was determined. To be noted: Mus musculus, read-out: ED50 (the source's name).
Assay [5] relates to RPMI-7951. As to the kind of experiment: Inhibitory activity against growth of human melanomic cancer cell line RPMI-7951 was determined.
Assay [6] has as its system BXPC-3. As to the kind of experiment: Inhibitory activity against growth of human pancreatic cancer cell line BXPC-3 was determined.
Assay [7] relates to NCI-H460. As to the kind of experiment: Inhibitory activity against growth of human lung NSC cancer cell line NCI-H460 was determined.
In assay [8] the test system is DU-145. As to the kind of experiment: Inhibitory activity against growth of human prostate cancer cell line DU-145 was determined.
The test system of assay [9] is KAT-4 cell line. As to the kind of experiment: Inhibitory activity against growth of human thyroid cancer cell line KAT-4 was determined.
In assay [10] the test system is DU-145. As to the kind of experiment: Inhibitory activity against growth of human prostate cancer cell line DU-145 was determined.
The subject of assay [11] is SW-1736. As to the kind of experiment: Inhibitory activity against growth of human thyroid cancer cell line SW1736 was determined.

Among the data in ChEMBL document CHEMBL1130918, “Antineoplastic agents. 397: Isolation and structure of sesterstatins 4 and 5 from Hyrtios erecta (the Republic of Maldives)” (1998) are GI50 and EC50 values, retold here.

Structures are written as SMILES. Values after ≈ are worked out from the molar mass of the structure shown.

On to `CC1(C)CCC[C@]2(C)[C@H]3C[C@@H](O)[C@]4(C)c5cocc5[C@@H](O)C[C@H]4[C@]3(C)CC[C@@H]12` [SESTERSTATIN 5], for which the 50% growth inhibitory concentration (GI50) in assay [1] is above 10 µg/mL; in assay [2] it was 1.9 µg/mL (≈ 4.91 µM); in assay [3], 1.9 µg/mL (≈ 4.91 µM); in [5], 2.1 µg/mL (≈ 5.43 µM); in [6], 2.2 µg/mL (≈ 5.69 µM); in assay [7] it was 2.5 µg/mL (≈ 6.47 µM). This compound also yielded a GI50 in assay [8] of 1.9 µg/mL (≈ 4.91 µM). The EC50 in assay [4] is above 10 µg/mL.
Regarding `CC1(C)CCC[C@]2(C)[C@H]3C[C@@H](O)[C@]4(C)c5cocc5[C@H](O)C[C@H]4[C@]3(C)CC[C@@H]12` [SESTERSTATIN 4], the GI50 in assay [1] was 4.9 µg/mL (≈ 12.7 µM); in assay [3] it was 2 µg/mL (≈ 5.17 µM); in [9], 2 µg/mL (≈ 5.17 µM); in [10] it was 1.6 µg/mL (≈ 4.14 µM); in [11] it was 2.1 µg/mL (≈ 5.43 µM); in assay [6], 1.6 µg/mL (≈ 4.14 µM). Besides, growth in assay [7] was halved (GI50) at 1.8 µg/mL (≈ 4.66 µM). For the same compound, the EC50 in assay [4] came out at 4.87 µg/mL (≈ 12.6 µM).

By GI50 is commonly meant the concentration that inhibits growth by half. Lower therefore signals more potent growth inhibition.
